Data published in PMC3050645 (Journal of the American Chemical Society, 2010).

These compounds were tested against Chlorite dismutase (Cld) (Dechloromonas aromatica (nom. nud.), UniProt Q47CX0) (assay: UV/vis Soret titration, hyperbolic fit).
Format: binding

Chlorite dismutase (Cld), sequence (Q47CX0 35-282): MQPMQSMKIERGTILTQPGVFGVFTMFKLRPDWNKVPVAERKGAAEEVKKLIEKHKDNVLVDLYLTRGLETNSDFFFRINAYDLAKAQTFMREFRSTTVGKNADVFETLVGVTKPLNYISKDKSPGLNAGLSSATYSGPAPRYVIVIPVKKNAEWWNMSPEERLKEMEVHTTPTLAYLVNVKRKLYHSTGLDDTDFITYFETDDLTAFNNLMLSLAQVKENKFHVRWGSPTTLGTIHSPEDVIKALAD

Q: `c1c[nH]cn1` [Imidazole] was tested. Which Kd did it give?
A: 7.6 ± 0.2 µM

Q: With `N#CS` [KSCN] as the compound, how does the Kd read?
A: 74 ± 2 µM

Q: `O=NO` [NaNO2] was tested. Which Kd did it give?
A: 770 ± 30 µM

Q: For `c1ccncc1` [Pyridine], which Kd is on record?
A: 553 ± 8 µM
